# Legend:
# Test in all cases: relative viability (nuclei count vs DMSO), 5 days (fraction); higher = more cells survive
# EHT 1864 + Navitoclax = compound: C1COCCN1CC2=CC(=O)C(=CO2)OCCCCCSC3=C4C=CC(=CC4=NC=C3)C(F)(F)F [EHT 1864] + CC1(C)CCC(c2ccc(Cl)cc2)=C(CN2CCN(c3ccc(C(=O)NS(=O)(=O)c4ccc(N[C@H](CCN5CCOCC5)CSc5ccccc5)c(S(=O)(=O)C(F)(F)F)c4)cc3)CC2)C1 [Navitoclax] (partner 0.5 µM)
# Method in brief: (§1)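 Lung cancer cell lines in 1536-well plates were dosed by pin tool the day after seeding, either with one drug alone or with a fixed anchor-drug dose plus five library-drug doses (not always all listed) in √10 steps. After 5 days, cells were fixed and their nuclei stained in one step (final 0.05% Triton X-100, 1% formaldehyde, 1 ug/ml Hoechst), then counted on 4× images. Relative viability is the nuclei count in treated wells divided by that in vehicle wells. Values are medians of duplicate plates.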
# EHT 1864 + Linsitinib = compound: C1COCCN1CC2=CC(=O)C(=CO2)OCCCCCSC3=C4C=CC(=CC4=NC=C3)C(F)(F)F [EHT 1864] + C[C@]1(O)C[C@@H](c2nc(-c3ccc4ccc(-c5ccccc5)nc4c3)c3c(N)nccn32)C1 [Linsitinib] (partner 1 µM)
# Method in brief: as §1
# EHT 1864 + Vorinostat = compound: C1COCCN1CC2=CC(=O)C(=CO2)OCCCCCSC3=C4C=CC(=CC4=NC=C3)C(F)(F)F [EHT 1864] + O=C(CCCCCCC(=O)Nc1ccccc1)NO [Vorinostat] (partner 1 µM)
# Method in brief: as §1
# EHT 1864 + Alpelisib = compound: C1COCCN1CC2=CC(=O)C(=CO2)OCCCCCSC3=C4C=CC(=CC4=NC=C3)C(F)(F)F [EHT 1864] + Cc1nc(NC(=O)N2CCC[C@H]2C(N)=O)sc1-c1ccnc(C(C)(C)C(F)(F)F)c1 [Alpelisib] (partner 2 µM)
# Method in brief: as §1
cell line,measurement,setting,value
NCI-H727,relative viability,EHT 1864 + Navitoclax; first compound 0.04 µM,0.554
same,relative viability,EHT 1864 + Navitoclax; first compound 0.1265 µM,0.507
same,relative viability,EHT 1864 + Navitoclax; first compound 0.4 µM,0.348
same,relative viability,EHT 1864 + Navitoclax; first compound 4 µM,0.324
same,relative viability,EHT 1864 + Linsitinib; first compound 0.04 µM,0.272
same,relative viability,EHT 1864 + Linsitinib; first compound 0.1265 µM,0.366
same,relative viability,EHT 1864 + Linsitinib; first compound 0.4 µM,0.349
same,relative viability,EHT 1864 + Linsitinib; first compound 4 µM,0.319
same,relative viability,EHT 1864 + Vorinostat; first compound 0.04 µM,1.47
same,relative viability,EHT 1864 + Vorinostat; first compound 0.1265 µM,1.31
same,relative viability,EHT 1864 + Vorinostat; first compound 0.4 µM,1.07
same,relative viability,EHT 1864 + Vorinostat; first compound 1.265 µM,1.26
same,relative viability,EHT 1864 + Vorinostat; first compound 4 µM,1.29
same,relative viability,EHT 1864 + Alpelisib; first compound 0.04 µM,0.623
same,relative viability,EHT 1864 + Alpelisib; first compound 0.1265 µM,0.593
same,relative viability,EHT 1864 + Alpelisib; first compound 0.4 µM,0.524
same,relative viability,EHT 1864 + Alpelisib; first compound 4 µM,0.567
NCI-H1355,relative viability,EHT 1864 + Navitoclax; first compound 0.04 µM,1.04
same,relative viability,EHT 1864 + Navitoclax; first compound 0.1265 µM,0.843
same,relative viability,EHT 1864 + Navitoclax; first compound 0.4 µM,0.907
same,relative viability,EHT 1864 + Navitoclax; first compound 1.265 µM,0.904
same,relative viability,EHT 1864 + Navitoclax; first compound 4 µM,0.838
same,relative viability,EHT 1864 + Linsitinib; first compound 0.04 µM,0.781
same,relative viability,EHT 1864 + Linsitinib; first compound 0.1265 µM,0.667
same,relative viability,EHT 1864 + Linsitinib; first compound 0.4 µM,0.718
same,relative viability,EHT 1864 + Linsitinib; first compound 1.265 µM,0.72
same,relative viability,EHT 1864 + Linsitinib; first compound 4 µM,0.77
same,relative viability,EHT 1864 + Vorinostat; first compound 0.04 µM,0.659
same,relative viability,EHT 1864 + Vorinostat; first compound 0.1265 µM,0.548
same,relative viability,EHT 1864 + Vorinostat; first compound 0.4 µM,0.633
same,relative viability,EHT 1864 + Vorinostat; first compound 1.265 µM,0.619
same,relative viability,EHT 1864 + Vorinostat; first compound 4 µM,0.696
same,relative viability,EHT 1864 + Alpelisib; first compound 0.04 µM,0.766
same,relative viability,EHT 1864 + Alpelisib; first compound 0.1265 µM,0.624
same,relative viability,EHT 1864 + Alpelisib; first compound 0.4 µM,0.699
same,relative viability,EHT 1864 + Alpelisib; first compound 1.265 µM,0.856
same,relative viability,EHT 1864 + Alpelisib; first compound 4 µM,0.89
NCI-H1975,relative viability,EHT 1864 + Navitoclax; first compound 0.04 µM,1.14
same,relative viability,EHT 1864 + Navitoclax; first compound 0.1265 µM,1.19
same,relative viability,EHT 1864 + Navitoclax; first compound 0.4 µM,1.17
same,relative viability,EHT 1864 + Navitoclax; first compound 1.265 µM,0.928
same,relative viability,EHT 1864 + Navitoclax; first compound 4 µM,0.875
same,relative viability,EHT 1864 + Linsitinib; first compound 0.04 µM,0.956
same,relative viability,EHT 1864 + Linsitinib; first compound 0.1265 µM,0.967
same,relative viability,EHT 1864 + Linsitinib; first compound 0.4 µM,0.955
same,relative viability,EHT 1864 + Linsitinib; first compound 1.265 µM,0.811
same,relative viability,EHT 1864 + Linsitinib; first compound 4 µM,0.835
same,relative viability,EHT 1864 + Vorinostat; first compound 0.04 µM,0.726
same,relative viability,EHT 1864 + Vorinostat; first compound 0.1265 µM,0.673
same,relative viability,EHT 1864 + Vorinostat; first compound 0.4 µM,0.677
same,relative viability,EHT 1864 + Vorinostat; first compound 1.265 µM,0.654
same,relative viability,EHT 1864 + Vorinostat; first compound 4 µM,0.644
same,relative viability,EHT 1864 + Alpelisib; first compound 0.04 µM,0.628
same,relative viability,EHT 1864 + Alpelisib; first compound 0.1265 µM,0.614
same,relative viability,EHT 1864 + Alpelisib; first compound 0.4 µM,0.6
same,relative viability,EHT 1864 + Alpelisib; first compound 1.265 µM,0.618
same,relative viability,EHT 1864 + Alpelisib; first compound 4 µM,0.572
NCI-H661,relative viability,EHT 1864 + Linsitinib; first compound 0.04 µM,0.603
same,relative viability,EHT 1864 + Linsitinib; first compound 0.1265 µM,0.516
same,relative viability,EHT 1864 + Linsitinib; first compound 0.4 µM,0.535
same,relative viability,EHT 1864 + Linsitinib; first compound 1.265 µM,0.512
same,relative viability,EHT 1864 + Linsitinib; first compound 4 µM,0.449
same,relative viability,EHT 1864 + Vorinostat; first compound 0.04 µM,0.836
same,relative viability,EHT 1864 + Vorinostat; first compound 0.1265 µM,0.685
same,relative viability,EHT 1864 + Vorinostat; first compound 0.4 µM,0.773
same,relative viability,EHT 1864 + Vorinostat; first compound 1.265 µM,0.697
same,relative viability,EHT 1864 + Vorinostat; first compound 4 µM,0.712
same,relative viability,EHT 1864 + Alpelisib; first compound 0.04 µM,0.596
same,relative viability,EHT 1864 + Alpelisib; first compound 0.1265 µM,0.672
same,relative viability,EHT 1864 + Alpelisib; first compound 0.4 µM,0.527
same,relative viability,EHT 1864 + Alpelisib; first compound 1.265 µM,0.465
same,relative viability,EHT 1864 + Alpelisib; first compound 4 µM,0.531
NCI-H2342,relative viability,EHT 1864 + Vorinostat; first compound 0.04 µM,0.688
same,relative viability,EHT 1864 + Vorinostat; first compound 0.1265 µM,0.725
same,relative viability,EHT 1864 + Vorinostat; first compound 0.4 µM,0.703
same,relative viability,EHT 1864 + Vorinostat; first compound 1.265 µM,0.803
same,relative viability,EHT 1864 + Vorinostat; first compound 4 µM,0.787
NCI-H2170,relative viability,EHT 1864 + Navitoclax; first compound 0.04 µM,0.674
same,relative viability,EHT 1864 + Navitoclax; first compound 0.1265 µM,0.511
same,relative viability,EHT 1864 + Navitoclax; first compound 0.4 µM,0.646
same,relative viability,EHT 1864 + Navitoclax; first compound 1.265 µM,0.573
same,relative viability,EHT 1864 + Navitoclax; first compound 4 µM,0.56
same,relative viability,EHT 1864 + Vorinostat; first compound 0.04 µM,0.789
same,relative viability,EHT 1864 + Vorinostat; first compound 0.1265 µM,0.692
same,relative viability,EHT 1864 + Vorinostat; first compound 0.4 µM,0.774
same,relative viability,EHT 1864 + Vorinostat; first compound 1.265 µM,0.84
same,relative viability,EHT 1864 + Vorinostat; first compound 4 µM,0.94
same,relative viability,EHT 1864 + Alpelisib; first compound 0.04 µM,0.751
same,relative viability,EHT 1864 + Alpelisib; first compound 0.1265 µM,0.759
same,relative viability,EHT 1864 + Alpelisib; first compound 0.4 µM,0.771
same,relative viability,EHT 1864 + Alpelisib; first compound 1.265 µM,0.793
same,relative viability,EHT 1864 + Alpelisib; first compound 4 µM,0.793
EBC-1,relative viability,EHT 1864 + Navitoclax; first compound 0.04 µM,0.381
same,relative viability,EHT 1864 + Navitoclax; first compound 0.1265 µM,0.329
same,relative viability,EHT 1864 + Navitoclax; first compound 0.4 µM,0.449
same,relative viability,EHT 1864 + Navitoclax; first compound 1.265 µM,0.431
same,relative viability,EHT 1864 + Navitoclax; first compound 4 µM,0.429
same,relative viability,EHT 1864 + Linsitinib; first compound 0.04 µM,0.883
same,relative viability,EHT 1864 + Linsitinib; first compound 0.1265 µM,0.426
same,relative viability,EHT 1864 + Linsitinib; first compound 0.4 µM,0.914
same,relative viability,EHT 1864 + Linsitinib; first compound 1.265 µM,0.896
same,relative viability,EHT 1864 + Linsitinib; first compound 4 µM,0.99
same,relative viability,EHT 1864 + Alpelisib; first compound 0.04 µM,0.843
same,relative viability,EHT 1864 + Alpelisib; first compound 0.1265 µM,0.697
same,relative viability,EHT 1864 + Alpelisib; first compound 0.4 µM,0.886
same,relative viability,EHT 1864 + Alpelisib; first compound 1.265 µM,0.908
same,relative viability,EHT 1864 + Alpelisib; first compound 4 µM,0.881
NCI-H1648,relative viability,EHT 1864 + Vorinostat; first compound 0.04 µM,0.562
same,relative viability,EHT 1864 + Vorinostat; first compound 0.4 µM,0.436
same,relative viability,EHT 1864 + Vorinostat; first compound 1.265 µM,0.411
same,relative viability,EHT 1864 + Vorinostat; first compound 4 µM,0.644
SW 900,relative viability,EHT 1864 + Vorinostat; first compound 0.04 µM,0.54
same,relative viability,EHT 1864 + Vorinostat; first compound 0.4 µM,0.531
same,relative viability,EHT 1864 + Vorinostat; first compound 1.265 µM,0.589
same,relative viability,EHT 1864 + Vorinostat; first compound 4 µM,0.467
ABC-1,relative viability,EHT 1864 + Linsitinib; first compound 0.04 µM,0.769
same,relative viability,EHT 1864 + Linsitinib; first compound 0.1265 µM,0.797
same,relative viability,EHT 1864 + Linsitinib; first compound 0.4 µM,0.73
same,relative viability,EHT 1864 + Linsitinib; first compound 1.265 µM,0.718
same,relative viability,EHT 1864 + Linsitinib; first compound 4 µM,0.555
same,relative viability,EHT 1864 + Vorinostat; first compound 0.04 µM,1.22
same,relative viability,EHT 1864 + Vorinostat; first compound 0.1265 µM,0.978
same,relative viability,EHT 1864 + Vorinostat; first compound 0.4 µM,0.928
same,relative viability,EHT 1864 + Vorinostat; first compound 1.265 µM,1.07
same,relative viability,EHT 1864 + Vorinostat; first compound 4 µM,1.12
same,relative viability,EHT 1864 + Alpelisib; first compound 0.04 µM,0.665
same,relative viability,EHT 1864 + Alpelisib; first compound 0.1265 µM,1
same,relative viability,EHT 1864 + Alpelisib; first compound 0.4 µM,1.05
same,relative viability,EHT 1864 + Alpelisib; first compound 1.265 µM,0.92
same,relative viability,EHT 1864 + Alpelisib; first compound 4 µM,1.07

# — the supplement of paper PMC10307832
